Test results taken from US20150038541A1, “COMPOSITION AND METHODS FOR CELL MODULATION” (APOSIGNAL BIOSCIENCE LLC, priority 2012, published 2015).

How the values were obtained:
[1] = system: HeLa cells; assay: FACS analysis after propidium iodide staining (cell cycle, apoptosis) of HeLa cells; format: cell-based, human
Procedure: FIG. 15 illustrates that AS-7 evokes accumulation HeLa cells in the G0-G1 phase of the cell cycle. HeLa cells were harvested two days after treatment with or without AS-7, stained with propidium iodide and subjected to analysis by FACS (Fluorescence Activated Cell Sorter).
FIG. 17 illustrates that AS-7 blocks exit from the Go-G1 phase of the cell cycle. HeLa cells were treated with nocodazole which evoked accumulation of the cells in the G2-M phase of the cell cycle (Nocodazole Blocked). The cells were released from the nocodazole block and treated with or without AS-7. After 16 hours the cells were stained with propidium iodide and subjected to analysis by FACS (Fluorescence Activated Cell Sorter).
The appearance of essentially all of the AS-7 treated cells was indistinguishable from that of the untreated cells.
A single addition of 10 μM AS-7 for 1 day to 7 or more days was sufficient to evoke accumulation in the Go-G1 phase of the cell cycle (FIGS. 15 and 16) (data not shown). […] HeLa cells were treated with nocodazole (100 ng/ml) for 12 h which evoked accumulation of rounded, loosely attached cells in mitosis. The mitotic cells were harvested and treated with or without 10 μM AS-7 in the absence of nocodazole (Released, 16 hours).

[2] = system: ovarian A2780 cells; assay: Crystal violet cell viability of ovarian A2780 cells, bortezomib with or without AS-7 (72 hours); format: cell-based, human; conditions: A2780 cells; 10 μM AS-7
Procedure: Ovarian tumor-derived cell lines, IGROV and A2780, were seeded in a 96 well tissue culture plate (2000 cells per well). The compounds, 10 μM AS-7 and bortezomib (BioVision, Inc., Milpitas, Calif.) at the concentrations indicated in the figures, were added the following day. AS-7 was prepared as described in Example I above. […] Values are relative to cells that with the vehicle in which the drugs were dissolved. Vehicle had no effect on cell viability. Error bars in FIG. 6 and FIG. 7 are not shown if they are smaller than the symbols.

[3] = system: HeLa cells; assay: Cell proliferation (growth rate, crystal violet) of HeLa cells with AS-7 by itself; format: cell-based, human
Procedure: Cell lines were plated at a sparse density in order to measure the rate of growth over a several day interval and obviate the effect of limited culture surface on the growth rate. The impact of AS-7 on cell proliferation became clear after two days and was dramatic after several days. While the impact of AS-7 was modest after two days, it became substantial after more than two days because the reduction in growth rate has the greatest impact on cell number after the cultures have expanded by several population doublings. […] AS-7 inhibited the rate of cell proliferation by 67% at a concentration of approximately 10 μM (FIG. 10). […] The following cell lines were used to determine the effect of AS-7 on the rate of proliferation: HeLa, melanoma […], ovarian A2780, and breast T47D. All cell line were grown in culture medium (RPMI 1640 for the breast cancer cells and Dulbecco's modified Eagle's medium for the other cell lines) containing 10% heat inactivated fetal bovine serum without antibiotics (penicillin and streptomycin).

[4] = system: proteasome; assay: Proteasome activity measured in lysates of treated cells; format: cell-based
Excerpt: The cytotoxic action of bortezomib is known to be mediated by proteasome inhibition and the induction of apoptosis.

[5] = system: breast T47D cells; assay: Cell proliferation (growth rate, crystal violet) of breast T47D cells with AS-7 by itself; format: cell-based, human; conditions: 10 μM AS-7, vehicle doubling time 1.4 days
Procedure: (§1) To examine the effect of AS-7 on the growth of several different cell lines, AS-7 at 10 μM was added to the culture medium the day after seeding the cells. The following cell lines were used to determine the effect of AS-7 on the rate of proliferation: HeLa, melanoma A2620, ovarian A2780, and breast T47D. All cell line were grown in culture medium (RPMI 1640 for the breast cancer cells and Dulbecco's modified Eagle's medium for the other cell lines) containing 10% heat inactivated fetal bovine serum without antibiotics (penicillin and streptomycin). […] The doubling times in HeLa, melanoma, ovarian and breast cancer derived cells were 0.9, 2.5, 1.0, and 1.4 days, respectively. AS-7 increased the doubling times of the HeLa, melanoma, ovarian, and breast cancer derived cells by 1.3, 1.3, 1.6, and 3.1 fold, respectively (FIGS. 11 through 14).

[6] = system: HeLa cells; assay: Glucose utilization and acid production in HeLa cell culture medium; format: cell-based, human; conditions: 10 μM AS-7, after 5 days
Procedure: FIG. 19 illustrates that AS-7 increases glucose utilization and acid production in HeLa cells. HeLa cells were cultured (100 mm diameter plates) in medium containing 4.5 mg/ml glucose at pH 7.4. After 5 days medium glucose was determined by standard methodology and the pH of the medium was measured with a pH meter.
Because it was repeatedly observed that AS-7 by itself decreased the pH of the culture medium, it was hypothesized that AS-7 might stimulate glucose utilization and the production of lactic acid, which is a major acidic product of glucose metabolism. HeLa cells were cultured in 100 millimeter diameter tissue culture plates in order to monitor the pH and the glucose concentration of the culture medium. Glucose was quantified with a glucose test strip and meter, as commonly used to monitor fluctuations in blood glucose. A pH meter was used to record the pH of the medium. Control cultures (“Control”) were treated with the appropriate amount of the vehicle used dissolve AS-7. Treated cultures (“AS-7”) incubated with 10 μM AS-7.

[7] = system: ovarian A2780 cells; assay: Cell proliferation (growth rate, crystal violet) of ovarian A2780 cells with AS-7 by itself; format: cell-based, human; conditions: 10 μM AS-7, vehicle doubling time 1.0 days
Procedure: as §1

## N#Cc1cccc(C(C(=O)NCC(c2ccccc2)c2ccccc2)N(CCc2c[nH]cn2)C(=O)c2ccccc2C(=O)c2ccccc2)c1 (stereo not drawn) [AS-7]
[1]; HeLa cells treated with AS-7 for several days, data not shown
  induction of apoptosis (FACS, propidium iodide): failed to induce apoptosis
[1]; HeLa cells, 10 μM AS-7
  cell cycle distribution (FACS, propidium iodide): evoked the accumulation
[1]; HeLa cells, 10 μM AS-7, 16 hours after release
  cell cycle progression after release from nocodazole block: blocked exit from the G0-G1 phase
[2]
  increase in potency of the cytotoxic action of bortezomib by AS-7: approximately 3.1 fold
[3]; AS-7 alone
  rate of growth of HeLa cells: moderately decreased
[3]; AS-7 by itself, each of the cancer-derived cell lines tested
  cell viability, microscopic observation of the cultures: did not decrease cell viability
[3]; HeLa cells (FIG. 10), approximately 10 μM AS-7
  inhibition of the rate of cell proliferation: 67%
[3]; HeLa cells, 10 μM AS-7, vehicle doubling time 0.9 days
  increase of doubling time: 1.3 fold
[3]; Homo sapiens, HeLa cells (FIG. 10), AS-7 by itself, read-out: IC50 for growth inhibition
  IC50: ~7 µM
[4]; cells treated with 10 ILIM AS-7 alone for various times
  effect on proteasome activity: no effect
[4]; data not shown
  effect of AS-7 on proteasome inhibition by bortezomib: did not increase
[5]
  increase of doubling time: 3.1 fold
[6]
  glucose concentration of the culture medium relative to control: significantly decreased
  pH of the culture medium relative to control: significantly decreased
[7]
  increase of doubling time: 1.6 fold
